Reference: PubChem BioAssay AID588384 (NMMLSC, 2011)
Active and inactive are the calls of the source.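 How the source made its calls: active means half-maximal concentration at most 10 µM and% response shifting at least 30 points across doses; inactive means the rest.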

target: Cell division control protein 42 homolog (Homo sapiens) (UniProt P60953); test: inhibitors of activated Cdc42 GTP binding, SAR follow-up, selectivity assay for Rab7 inhibitor project, biochemical, activated mutant, bead multiplex, flow cytometry, round 1 (AID 588384); conditions: GST-Cdc42 act beads, fluorescent GTP binding
Sequence (P60953 whole entry, looked up): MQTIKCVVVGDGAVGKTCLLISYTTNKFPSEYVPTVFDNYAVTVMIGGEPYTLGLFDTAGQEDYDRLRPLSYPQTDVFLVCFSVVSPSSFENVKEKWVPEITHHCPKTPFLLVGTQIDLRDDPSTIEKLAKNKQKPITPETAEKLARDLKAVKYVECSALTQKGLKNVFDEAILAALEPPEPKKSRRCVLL

EC50 [µM] | Compound
0.326 | CC1(C)Cc2c(sc(NC(=S)NC(=O)c3cccc(F)c3)c2C(=O)O)CO1
0.468 | CC1(C)Cc2c(sc(NC(=O)NC(=O)c3ccccc3)c2C(=O)O)CO1
5.69 | CC1(C)Cc2c(sc(NC(=S)NC(=O)c3cccc(Br)c3)c2C(=O)O)CO1
0.054 | COc1cccc(C(=O)NC(=S)Nc2sc3c(c2C(=O)O)CC(C)(C)OC3)c1
0.289 | CC1(C)Cc2c(sc(NC(=S)NC(=O)c3ccc(Br)cc3)c2C(=O)O)CO1
0.051 | CC1(C)Cc2c(sc(NC(=S)NC(=O)c3ccccc3F)c2C(=O)O)CO1
0.054 | CC1(C)Cc2c(sc(NC(=S)NC(=O)c3ccccc3Br)c2C(=O)O)CO1

More lines, now with the values behind:

Compound | EC50 [µM]
COc1ccc(C(=O)NC(=S)Nc2sc3c(c2C(=O)O)CC(C)(C)OC3)cc1 | 0.204
CC1Cc2c(sc(NC(=S)NC(=O)c3ccccc3)c2C(=O)O)CO1 (stereo unspecified) | 0.09
CC1(C)CCc2sc(NC(=S)NC(=O)c3ccccc3)c(C(=O)O)c2C1 | 0.108
O=C(NC(=S)Nc1sc2c(c1C(=O)O)CCOC2)c1ccccc1 | 0.044

same assay, conditions: GST-Cdc42 act beads, fluorescent GTP binding, at 100 µM (top of the series)

% response (lower = inhibition) | Compound
inactive | CC1(C)Cc2c(sc(NC(=S)Nc3ccccc3)c2C(=O)O)CO1
inactive | CC1(C)Cc2c(sc(NC(=O)Cc3ccccc3)c2C(=O)O)CO1
inactive | CCOC(=O)c1c(NC(=S)Nc2ccccc2)sc2c1CC(C)(C)OC2
inactive | COC(=O)c1c(NC(=S)NC(=O)c2ccccc2)sc2c1CC(C)(C)OC2

The next lines start with the compound.

Compound | % response (lower = inhibition)
COC(=O)c1c(N)sc2c1CC(C)(C)OC2 | inactive
Cc1ccc(Nc2nc3sc4c(c3c(=O)o2)CCN(C)C4)cc1 | inactive
CN1CCc2c(sc3nc(Nc4ccc(F)cc4)oc(=O)c23)C1 | inactive
CC(C)(C)OC(=O)c1c(NC(=S)NC(=O)c2ccccc2)sc2c1CCOC2 | inactive
CCOC(=O)c1c(NC(=S)NC(=O)c2ccccc2)sc2ccccc12 | inactive
CN1CCc2c(sc(NC(=O)Nc3ccc(F)cc3)c2C(=O)O)C1 | inactive
CCOC(=O)c1c(NC(=O)Nc2ccc(C)cc2)sc2c1CCN(C)C2 | inactive
CCOC(=O)c1c(NC(=O)NC(C)(C)C)sc2c1CCN(C)C2 | inactive
CCOC(=O)c1c(NC(=O)Nc2ccc(F)cc2)sc2c1CCN(C)C2 | inactive
CCOC(=O)c1c(N)sc2ccccc12 | inactive
Cc1ccc(NC(=O)Nc2sc3c(c2C(=O)O)CCN(C)C3)cc1 | inactive
